According to ChEMBL document CHEMBL5030546, “Synthesis of thiocolchicine amine derivatives and evaluation of their antiproliferative activity” (Bioorg Med Chem Lett, 2021):

Columns and labels:
A549 = experiment: cells; type: functional, cell-based; conditions: Homo sapiens, A549, 72 h
Description: Antiproliferative activity against human A549 cells assessed as inhibition of cell proliferation incubated for 72 hrs by SRB assay

MCF7 = experiment: cells; type: functional, cell-based; conditions: Homo sapiens, MCF7, 72 h
Description: Antiproliferative activity against human MCF7 cells assessed as inhibition of cell proliferation incubated for 72 hrs by SRB assay

LoVo = experiment: cells; type: functional, cell-based; conditions: Homo sapiens, 72 h
Description: Antiproliferative activity against human LoVo cells assessed as inhibition of cell proliferation incubated for 72 hrs by SRB assay

cells = type: functional, cell-based; conditions: Homo sapiens, LoVo/DX, 72 h
Description: Antiproliferative activity against human Lovo/DX cells assessed as inhibition of cell proliferation incubated for 72 hrs by SRB assay

BALB/3T3 = experiment: Cytotoxicity against mouse BALB/3T3 cells assessed as reduction in cell viability incubated for 72 hrs by SRB assay; type: ADME, cell-based; conditions: BALB/3T3, 72 h
[1] = Resistance index, ratio of IC50 for human LoVo/DX cells to IC50 for human LoVo cells; type: functional
[2] = Selectivity index, ratio of IC50 for mouse BALB/3T3 cells to IC50 for human A549 cells; type: toxicity; conditions: BALB/3T3 cells versus A549 cells, read-out: Ratio IC50
[3] = Selectivity index, ratio of IC50 for mouse BALB/3T3 cells to IC50 for human MCF7 cells; type: toxicity; conditions: BALB/3T3 cells versus MCF7 cells, read-out: Ratio IC50
[4] = Selectivity index, ratio of IC50 for mouse BALB/3T3 cells to IC50 for human LoVo cells; type: toxicity; conditions: BALB/3T3 cells versus LoVo cells, read-out: Ratio IC50
[5] = Selectivity index, ratio of IC50 for mouse BALB/3T3 cells to IC50 for human LoVo/DX cells; type: toxicity; conditions: BALB/3T3 cells versus LoVo/DX cells, read-out: Ratio IC50

| Compound | IC50 (A549) | IC50 (MCF7) | IC50 (LoVo) | IC50 (cells) | IC50 (BALB/3T3) | Ratio IC50 [1] | selectivity ratio [2] | selectivity ratio [3] | selectivity ratio [4] | selectivity ratio [5] |
| --- | --- | --- | --- | --- | --- | --- | --- | --- | --- | --- |
| CCCCCCCCN[C@H]1CCc2cc(OC)c(OC)c(OC)c2-c2ccc(SC)c(=O)cc21 | 1010 nM | 1120 nM | 903 nM | 693 nM | 1040 nM | 0.8 |  |  |  |  |
| CCCCCCCCCCCCN[C@H]1CCc2cc(OC)c(OC)c(OC)c2-c2ccc(SC)c(=O)cc21 | 152 nM | 719 nM | 453 nM | 1980 nM | 1070 nM | 4.4 |  |  |  |  |
| CCCCCCN[C@H]1CCc2cc(OC)c(OC)c(OC)c2-c2ccc(SC)c(=O)cc21 | 104 nM | 109 nM | 83 nM | 72.7 nM | 107 nM | 0.9 |  |  |  |  |
| CCN[C@H]1CCc2cc(OC)c(OC)c(OC)c2-c2ccc(SC)c(=O)cc21 | 10.8 nM | 10.3 nM | 6.5 nM | 54.9 nM | 10.2 nM | 8.5 |  |  |  |  |
| COc1cc(CN[C@H]2CCc3cc(OC)c(OC)c(OC)c3-c3ccc(SC)c(=O)cc32)ccc1O | 7.1 nM | 8.2 nM | 53.3 nM | 85.6 nM | 385 nM | 1.8 | 54.2 | 46.9 | 7.2 | 4.5 |
| COc1cc2c(c(OC)c1OC)-c1ccc(SC)c(=O)cc1[C@@H](NCc1ccccc1)CC2 | 9.6 nM | 10.3 nM | 7.9 nM | 13.9 nM | 9.8 nM | 1.8 |  |  |  |  |
| COc1cc2c(c(OC)c1OC)-c1ccc(SC)c(=O)cc1[C@@H](NCCc1ccccc1)CC2 | 10.7 nM | 11.4 nM | 10.7 nM | 66.9 nM | 61.2 nM | 6.2 |  |  |  |  |
| COc1cc2c(c(OC)c1OC)-c1ccc(SC)c(=O)cc1[C@@H](NCCC(C)C)CC2 | 13.1 nM | 12 nM | 8.4 nM | 9.4 nM | 13.3 nM | 1 |  |  |  |  |
| COc1cc2c(c(OC)c1OC)-c1ccc(SC)c(=O)cc1[C@@H](NCc1ccc(C)cc1)CC2 | 83.4 nM | 100 nM | 47.6 nM | 52.3 nM | 85.4 nM | 1.1 |  |  |  |  |
| COc1cc2c(c(OC)c1OC)-c1ccc(SC)c(=O)cc1[C@@H](NCc1ccc(I)cc1)CC2 | 101 nM | 84.2 nM | 72.4 nM | 234 nM | 119 nM | 3.2 |  |  |  |  |
| COc1cc2c(c(OC)c1OC)-c1ccc(SC)c(=O)cc1[C@@H](NCc1ccncc1)CC2 | 10.9 nM | 9.7 nM | 7.8 nM | 56.2 nM | 10.9 nM | 7.2 |  |  |  |  |
| COc1cc2c(c(OC)c1OC)-c1ccc(SC)c(=O)cc1[C@@H](NCc1ccccc1O)CC2 | 9.3 nM | 10.3 nM | 9.4 nM | 41.7 nM | 8.8 nM | 4.5 |  |  |  |  |
| CCCCCN[C@H]1CCc2cc(OC)c(OC)c(OC)c2-c2ccc(SC)c(=O)cc21 | 89.5 nM | 92.7 nM | 52.8 nM | 77.8 nM | 99.4 nM | 1.5 |  |  |  |  |
| COc1cccc2c1C(=O)c1c(O)c3c(c(O)c1C2=O)C[C@@](O)(C(=O)CO)C[C@@H]3O[C@H]1C[C@H](N)[C@H](O)[C@H](C)O1 [DOXORUBICIN] | 149 nM | 146 nM | 71 nM | 3960 nM | 315 nM | 56 |  |  |  |  |
| COc1cc2c(c(OC)c1OC)-c1ccc(SC)c(=O)cc1[C@@H](NC/C=C/c1ccccc1)CC2 | 95 nM | 102 nM | 79.2 nM | 210 nM | 98.6 nM | 2.7 |  |  |  |  |
| COc1cc2c(c(OC)c1OC)-c1ccc(SC)c(=O)cc1[C@@H](NCc1ccc(F)cc1)CC2 | 9.6 nM | 11.2 nM | 7.6 nM | 33.2 nM | 11.7 nM | 4.4 |  |  |  |  |
| CCCCN[C@H]1CCc2cc(OC)c(OC)c(OC)c2-c2ccc(SC)c(=O)cc21 | 10.9 nM | 12.2 nM | 8.8 nM | 17.9 nM | 11.7 nM | 2 |  |  |  |  |
| COc1cc2c(c(OC)c1OC)-c1ccc(SC)c(=O)cc1[C@@H](NCc1cccc(CN[C@H]3CCc4cc(OC)c(OC)c(OC)c4-c4ccc(SC)c(=O)cc43)n1)CC2 | 47.3 nM | 7.7 nM | 27.9 nM | 400 nM | 50.3 nM | 14.3 |  |  |  |  |
| COc1ccc(CN[C@H]2CCc3cc(OC)c(OC)c(OC)c3-c3ccc(SC)c(=O)cc32)cc1O | 10.8 nM | 10.3 nM | 8.8 nM | 69.4 nM | 10.8 nM | 7.9 |  |  |  |  |
| CCCC(C)CN[C@H]1CCc2cc(OC)c(OC)c(OC)c2-c2ccc(SC)c(=O)cc21 (stereo partly specified) | 11 nM | 17.8 nM | 12 nM | 70.2 nM | 78.5 nM | 5.8 |  |  |  |  |
| COc1cc2c(c(OC)c1OC)-c1ccc(SC)c(=O)cc1[C@@H](NCc1ccc(Cl)cc1)CC2 | 70.5 nM | 73.4 nM | 37 nM | 64.9 nM | 88.2 nM | 1.8 |  |  |  |  |
| COc1cc2c(c(OC)c1OC)-c1ccc(OC)c(=O)cc1[C@@H](NC(C)=O)CC2 [COLCHICINE] | 19.3 nM |  | 12.7 nM | 967 nM | 82.3 nM |  |  |  |  |  |
| CCCN[C@H]1CCc2cc(OC)c(OC)c(OC)c2-c2ccc(SC)c(=O)cc21 | 11.6 nM | 12 nM | 8.5 nM | 31.1 nM | 14.3 nM | 3.7 |  |  |  |  |
| COc1cc2c(c(OC)c1OC)-c1ccc(SC)c(=O)cc1[C@@H](NCC(C)C)CC2 | 10.5 nM | 11.3 nM | 8.5 nM | 10.2 nM | 11 nM | 1.2 |  |  |  |  |
